According to EP1708692B1, “DICHLOROACETATE IN COMBINATION WITH AN INOTROPE FOR CARDIOPROTECTION” (The Governors of the University of Alberta, priority 2004, dated 2005):
“And” between values parts separate entries of the source, which are not always exact repeats. Equal values may be shown once. Read-outs that look alike come from different tables or passages of the source.

How the values were obtained:
[1] = Plasma DCA levels by HPLC after bolus, adult CABG patients (Example A); type: in vivo; settings: human, 50 mg/kg, following infusion of 50mg/kg Na+ Dichloroacetate via cardiopulmonary bypass pump, 1 hour following administration, n=8
Experimental: (§1) DCA or saline was administered to 18 patients undergoing elective cardiac bypass grafting surgery (CABG) in a double blinded randomized manner DCA (50mg/kg in 100 ml of saline) or placebo was injected into the aortic root, immediately prior to removing aortic cross clamp. Based on the pharmacokinetics of DCA, we anticipated that this would produce a plasma concentration of approximately 1 mM. The study consisted of 8 DCA-treated patients and 10 placebo-treated patients.
(§2) The intervention involved DCA (50mg/kg) or placebo injected into the aortic root immediately prior to removing aortic cross clamp. The coded solution was made such that a dose of lml/kg provides the appropriate dose of DCA or placebo. Based on the pharmacokinetics of DCA, this was expected to result in a plasma level of DCA in the therapeutic range of (1mM). All blood samples were analyzed by HPLC for DCA concentration.
Plasma samples were processed for DCA levels using a high performance liquid chromatography (HPLC) technique that separated the DCA from other plasma constituents. In brief, 20 µl of plasma sample was injected into a Beckman Gold HPLC containing a IonoBpher 5A column (250x4.6mm LxID) and a AX Guard Column. […] The flow rate of the HPLC was set at 3.0 ml/min and the DCA eluted from the column was detected by comparing DCA elution times to acetate, monochloroacetate, and trichloroacetate standards. […]

[2] = system: patients undergoing elective cardiac bypass grafting surgery (CABG); test: Mortality in adult CABG study (Example A); type: in vivo, human; settings: 50mg/kg bolus, 8 DCA-treated adult patients
Experimental: as §1, §2

[3] = system: pediatric patients requiring heart surgery to connect complex congenital heart lesions; test: Clinical outcome after single DCA bolus: Inotrope Score, ICU time, ventilator time, echocardiography (Example B); type: in vivo; settings: 50mg/kg bolus, placebo patients 26%
Experimental: This study was a randomized, placebo-controlled, double blinded, single surgeon, study of the use of DCA in 40 high-risk pediatric patients requiring heart surgery to connect complex congenital heart lesions.
In this trial, 40 children were recruited to participate in a single surgeon study, of which 18 received DCA and 22 received placebo. The 1995 power calculations were based on separation of the CPB-1 trial of n = 40 patients.
as §2, with “in” for “in a”, “levels” for “level”
In both the operating room at the end of cardiopulmonary bypass and in the intensive care unit, parenteral drugs were scored on an hourly basis with 1 point allotted for each level for each bolus or infusion given within the previous hour for the first 24 hours post-operatively. Thus, at the end of 24 hours high scores indicated poorer cardiac function.

[4] = Plasma DCA levels by HPLC, bolus and infusion protocol (Example C); type: in vivo, pediatric patients; settings: human
Experimental: (§3) DCA (50mg/kg) or placebo was injected into the aortic root immediately prior to removing aortic cross clamp. The coded solutions were made such that a dose of 1 ml/kg provided either a DCA therapeutic level of 1mM plasma concentration of DCA, or a placebo solution. Immediately thereafter, an infusion of DCA at 25mg/kg/hr or placebo in the same volume was initiated and run for 24 hours. Based on the pharmacokinetics of DCA, this was expected to maintain plasma levels of DCA in the therapeutic range of (0.2-1mM). However, the plasma concentrations of DCA were below 1mM after the first hour interval, and that the 24 hour plasma concentrations were elevated above 1mM DCA levels at the 24 hour interval, a decision was made to modify the dosing protocol. This change in dosing protocol was approved by the Ethics Committee, but not implemented until patient number 24. All blood samples were analyzed by HPLC for DCA concentration.
(§4) DCA (100mg/kg) or placebo was injected into the aortic root immediately prior to removing aortic cross clamp. The coded solutions were made such that a dose of 1 ml/kg provided either a DCA therapeutic level of 1mM plasma concentration of DCA, or a placebo solution. Immediately thereafter, an infusion of DCA at 12.5mg/kg/hr or placebo in the same volume was initiated and run for 24 hours. Based on the pharmacokinetics of DCA, this was expected to maintain plasma levels of DCA in the therapeutic range of (0.2-1mM). All blood samples were analyzed by HPLC for DCA concentration.
Arterial blood samples were obtained from patients at the following times: • a. Immediately after the insertion of arterial line in operating room (i.e., at beginning of surgery). • b. Thirty minutes after the bolus of DCA has been given, whether or not cardiopulmonary bypass has been discontinued. • c. One hour after discontinuing cardiopulmonary bypass. • d. Six hours after discontinuing cardiopulmonary bypass • e. Twelve hours after discontinuing cardiopulmonary bypass. • f. Twenty four hours after discontinuing cardiopulmonary bypass. At the end of 24 hours, the DCA or placebo infusion was discontinued.
Blood samples were collected from indwelling arterial lines into citrate-containing tubes (0.5 ml blood samples). The samples were spun in the microfuge, the plasma separated, and frozen immediately for later analysis. All plasma samples were stored at -80 degrees centigrade, until further processing. Plasma glucose and lactate were determined using a Sigma glucose kit and a spectrophotometric assay involving lactate dehydrogenase respectively. Plasma fatty acid levels were measured using an ELISA system and WAKO free fatty acid kit.

[5] = system: pediatric patients requiring heart surgery to correct complex congenital heart lesions; test: Clinical outcome after DCA bolus and 24 hour infusion: Inotrope Score, ICU time, ventilator time (Example C); type: in vivo; parameters: reduction of Inotrope Scores: concentration or dose not given beside the values; settings: compared to placebo; for average decrease in Inotrope Score per patient: over the 24 hour period
Experimental: This study was a randomized, placebo-controlled, double blinded, single surgeon, study of the use of DCA in 51 high-risk pediatric patients requiring heart surgery to correct complex congenital heart lesions.
In this trial, 53 infants were recruited to participate in a study, of which 51 patients met inclusion criteria after parental consent. Two dosing groups resulted from the study team changing the dosing protocol after the data from the initial 10 patients were analyzed. The data from patients number 1 to number 10 was analyzed for DCA therapeutic blood levels and therapeutic effect. A recommendation by the research team was made to increase the bolus dose of DCA and to decrease the infusion dose of DCA to maintain a DCA dose range of 1mM for 24 hours. The intent was to administer the new protocol at patient number 20. The 1997 Epicore power calculations were based on separation of the study groups patients into group A of n = 20 patients and Group B of n = 31 patients
as §3, §4
In both the operating room at the end of cardiopulmonary bypass and in the intensive care unit, parenteral drugs were scored on an hourly basis with 1 point allotted for each level for each bolus or infusion given within the previous hour within the first 24 hours post-operatively. Thus at the end of 24 hours, high scores indicated poorer cardiac function.

patients = test: Observed side effects of DCA in patients
[6] = Group A, 50mg/kg bolus and 25mg/kg/hour infusion
[7] = Group B, 100mg/kg bolus and 12.5mg/kg/hour infusion

In the case of `O=C(O)C(Cl)Cl` [DCA, dichloroacetate], the concentration at 1 h [1] is reported as about 1000 µM, the mortalities [2] is reported as “no mortalities” and the “shortening fraction (echocardiography)” value [3] is reported as 35%. The concentration at 24 h ([4]; 50 mg/kg, Example C, 24 hour interval (Group A), read-out: optimum mean level of DCA in plasma) was 2.29 mM, the concentration at 24 h ([4]; 50 mg/kg, Group A protocol (50mg/kg bolus, 25mg/kg/hr infusion), 24 hour interval, initial patients, read-out: plasma concentrations of DCA) was over 1 mM and the concentration at 1 h ([4]; 50 mg/kg, Group A protocol (50mg/kg bolus, 25mg/kg/hr infusion), after the first hour interval, initial patients, read-out: plasma concentrations of DCA) was under 1 mM. For the same molecule, the concentration at 12 h ([4]; 50 mg/kg, Group A, 50mg/kg bolus and 25mg/kg/hr infusion, n=9, read-out: Average DCA Plasma Levels, mM at 12 hr) was 1.77 mM, the concentration at 6 h ([4]; 50 mg/kg, Group A, 50mg/kg bolus and 25mg/kg/hr infusion, n=10, read-out: Average DCA Plasma Levels, mM at 6 hr) was 1.13 mM and the concentration at 1 h ([4]; 50 mg/kg, Group A, 50mg/kg bolus and 25mg/kg/hr infusion, n=11, read-out: Average DCA Plasma Levels, mM at 1 hr) was 0.46 mM. For the same molecule, the concentration at 24 h ([4]; 50 mg/kg, Group A, 50mg/kg bolus and 25mg/kg/hr infusion, n=11, read-out: Average DCA Plasma Levels, mM at 24 hr) was 2.72 mM, the concentration at 6 h ([4]; 50 mg/kg, Group A, 50mg/kg bolus and 25mg/kg/hr infusion, patients with greatest degree of clinical benefits, m=5, read-out: Average Optimum Mean of DCA Plasma Levels, mM at 6 hr) was 0.916 mM and the concentration at 12 h ([4]; 50 mg/kg, Group A, 50mg/kg bolus and 25mg/kg/hr infusion, patients with greatest degree of clinical benefits, m=5, read-out: Average Optimum Mean of DCA Plasma Levels, mM at 12 hr) was 1.52 mM. The concentration at 24 h ([4]; 50 mg/kg, Group A, 50mg/kg bolus and 25mg/kg/hr infusion, patients with greatest degree of clinical benefits, m=6, read-out: Average Optimum Mean of DCA Plasma Levels, mM at 24 hr) was 2.29 mM, the concentration at 6 h ([4]; 100 mg/kg, Example C, 1 to 6 hour period (Group B), read-out: optimum mean level of DCA in plasma) was 1 mM and the concentration at 6 h ([4]; 100 mg/kg, Group B, 100mg/kg bolus and 12.5 mg/kg/hr infusion, n not given, read-out: Average Optimum Mean of DCA Plasma Levels, mM at 6 hr) was 1 mM. For the same molecule, the concentration at 12 h ([4]; 100 mg/kg, Group B, 100mg/kg bolus and 12.5 mg/kg/hr infusion, n not given, read-out: Average Optimum Mean of DCA Plasma Levels, mM at 12 hr) was 1 mM, the concentration at 24 h ([4]; 100 mg/kg, Group B, 100mg/kg bolus and 12.5 mg/kg/hr infusion, n not given, read-out: Average Optimum Mean of DCA Plasma Levels, mM at 24 hr) was 1 mM and the concentration at 24 h ([4]; 100 mg/kg, Group B, 100mg/kg bolus and 12.5 mg/kg/hr infusion, n=10, read-out: Average DCA Plasma Levels, mM at 24 hr) was 2.23 mM. It also gave a concentration at 1 h ([4]; 100 mg/kg, Group B, 100mg/kg bolus and 12.5 mg/kg/hr infusion, n=11, read-out: Average DCA Plasma Levels, mM at 1 hr) of 1.13 mM, a concentration at 6 h ([4]; 100 mg/kg, Group B, 100mg/kg bolus and 12.5 mg/kg/hr infusion, n=11, read-out: Average DCA Plasma Levels, mM at 6 hr) of 0.894 mM and a concentration at 12 h ([4]; 100 mg/kg, Group B, 100mg/kg bolus and 12.5 mg/kg/hr infusion, n=11, read-out: Average DCA Plasma Levels, mM at 12 hr) of 1.43 mM. The concentration at 6 h ([4]; Example C, 1 to 6 hour interval, read-out: DCA plasma level range) was 0.229 to 2.22 mM, the concentration at 12 h ([4]; Example C, 12 hour interval, read-out: DCA plasma level range) was 0.38 to 3.07 mM and the concentration at 12 h ([4]; Example C, 12 hour interval, read-out: optimum mean level of DCA in plasma) was 1.52 mM. It also gave a concentration at 24 h ([4]; Example C, 24 hour interval, read-out: DCA plasma level range) of 1.74 to 3.9 mM, a concentration at 1 h ([4]; Group A, 50mg/kg bolus and 25mg/kg/hr infusion, patients with greatest degree of clinical benefits, n not given, read-out: Average Optimum Mean of DCA Plasma Levels, mM at 1 hr) of 1 mM and a concentration at 1 h ([4]; Group B, 100mg/kg bolus and 12.5 mg/kg/hr infusion, patients with greatest degree of clinical benefits, n=7, read-out: Average Optimum Mean of DCA Plasma Levels, mM at 1 hr) of 1.01 mM. For the same molecule, the “reduction of time in ICU” value ([5]; Group A, 50mg/kg bolus and 25mg/kg/hour infusion, 23 patients) was 60 h, the “decrease of time in ICU” value [5, 6] was 41% and the “decrease of ventilator time” value [5, 6] was 47%. The “reduction of ventilator time” value [5, 6] was 46 h, the “reduction of Inotrope Scores” value ([5]; Group A, by 1 hour) was 50% and the “reduction of Inotrope Scores” value ([5]; Group A, by 12 hours) was 45%. The “reduction of Inotrope Scores” value ([5]; Group A, by 24 hours) was 38%, the “average decrease in Inotrope Score per patient” value ([5]; Group A) was 44% and the “reduction of time in ICU” value ([5]; Group B, 100mg/kg bolus and 12.5mg/kg/hour infusion, 24 patients) was 50 h. The “decrease of time in ICU” value [5, 7] was 40%, the “decrease of ventilator time” value [5, 7] was 23% and the “reduction of ventilator time” value [5, 7] was 18 h and 19 h. For the same molecule, the “reduction of Inotrope Scores” value ([5]; Group B, by 1 hour) was 57%, the “reduction of Inotrope Scores” value ([5]; Group B, by 12 hours) was 49% and the “reduction of Inotrope Scores” value ([5]; Group B, by 24 hours) was 45%. For the same molecule, the “average decrease in Inotrope Score per patient” value ([5]; Group B) was 51%, the side-effects (patients; general observation in patients) was “not have significant side-effects, although some patients experience mild drowsiness” and the “adverse effects of DCA” value (patients; previous (pilot) studies) was “no adverse effects”.
